Measured values reported in patent US7612096B2, “Methods for treatment, modification and management of radiculopathy using 1-oxo-2-(2,6-dioxopiperidin-3yl)-4-aminoisoindoline” (Celgene Corporation, priority 2004, dated 2009).

Assays:
IL1β production = experiment: LPS-stimulated production of IL1β by PBMC; type: cell-based
IL6 production = experiment: LPS-stimulated production of IL6 by PBMC; type: cell-based
IL10 production = experiment: LPS-stimulated production of IL10 by PBMC; type: cell-based
Beagle dogs = experiment: Cardiovascular and respiratory function in anesthetized dogs; type: in vivo, dog; settings: for cardiovascular and respiratory changes compared to the vehicle control group: anesthetized Beagle dogs, 2, 10 and 20 mg/kg, infusion through the jugular vein, all doses; for duration of the arterial blood pressure increase / change in arterial blood pressure / deviations in femoral blood flow, respiratory parameters, and Qtc interval: anesthetized Beagle dogs; for duration of the arterial blood pressure increase / change in arterial blood pressure: low dose; for change in arterial blood pressure: i.v. infusion, statistically significant, not seen at higher doses; for deviations in femoral blood flow, respiratory parameters, and Qtc interval: common to both control and treated groups
Excerpt: The effects of 3-(4-amino-1-oxo-1,3-dihydro-isoindol-2-yl)-piperidine-2,6-dione and 4-(amino)-2-(2,6-dioxo-(3-piperidyl))-isoindoline-1,3-dione on cardiovascular and respiratory function were investigated in anesthetized dogs. Two groups of Beagle dogs (2/sex/group) were used. One group received three doses of vehicle only and the other receives three ascending doses of 3-(4-amino-1-oxo-1,3-dihydro-isoindol-2-yl)-piperidine-2,6-dione or 4-(amino)-2-(2,6-dioxo-(3-piperidyl))-isoindoline-1,3-dione (2, 10, and 20 mg/kg). In all cases, doses of 3-(4-amino-1-oxo-1,3-dihydro-isoindol-2-yl)-piperidine-2,6-dione, 4-(amino)-2-(2,6-dioxo-(3-piperidyl))-isoindoline-1,3-dione or vehicle were successively administered via infusion through the jugular vein separated by intervals of at least 30 minutes.

TNF-α production [1] = experiment: Inhibition of TNF-α production following LPS-stimulation of human whole blood; type: cell-based; settings: LPS-stimulated, read-out: IC50 for inhibiting production of TNF-α following LPS-stimulation of human whole blood
Excerpt: (§1) Inhibitions of TNF-α production following LPS-stimulation of human PBMC and human whole blood by 3-(4-amino-1-oxo-1,3-dihydro-isoindol-2-yl)-piperidine-2,6-dione, 4-(amino)-2-(2,6-dioxo-(3-piperidyl))-isoindoline-1,3-dione and thalidomide were investigated in vitro.

TNF-α production [2] = experiment: Inhibition of TNF-α production following LPS-stimulation of human PBMC; type: cell-based; settings: for IC50: human PBMC, LPS-stimulated, read-out: IC50 for inhibiting production of TNF-α following LPS-stimulation of PBMC
Excerpt: as §1

CRPS patients = experiment: Clinical study in patients with upper extremity CRPS; type: in vivo, human; settings: 10 mg continuous oral daily dose
Experimental: Immunomodulatory compounds such as 4-(amino)-2-(2,6-dioxo(3-piperidyl))-isoindoline-1,3-dione and 3-(4-amino-1-oxo-1,3-dihydro-isoindol-2-yl)-piperidine-2,6-dione are administered in an amount of 0.1 to 25 mg per day to patients with pain syndromes for three to six months. A baseline evaluation is performed for the effect of the drug treatment on pain intensity, impact of pain on activities of daily living, and consumption of other pain medications.
In a specific embodiment, clinical studies are performed in pain patients who have upper extremity CRPS that has not responded to conventional physical therapy and has been present for at least one year. In the early course of their diseases, patients have clear evidence of autonomic dysfunction with formal autonomic testing (Quantitative sudomotor axon reflex test (QSART), resting sweat output, and thermography). […] Responses are assessed using standard pain scales, e.g., Numeric Pain Scale Assessment (VAS) for pain, quality of life using the McGill Index and objective signs in clinical examination such as a visible reduction of swelling, sweating, discolorations in skin color, temperature changes, changes in skin, hair and nail growth, and fine motor movements. […]

SMILES: Nc1cccc2c1C(=O)N(C1CCC(=O)NC1=O)C2=O (stereo not drawn) [4-(Amino)-2-(2,6-dioxo(3-piperidyl))-isoindoline-1,3-dione]
- effect on LPS-stimulated production of IL1β by PBMC (IL1β production): dose-dependent inhibition
- effect on LPS-stimulated production of IL6 by PBMC (IL6 production): dose-dependent inhibition
- effect on production of the anti-inflammatory cytokine IL10 (IL10 production): increased production
- cardiovascular and respiratory changes compared to the vehicle control group (Beagle dogs): minimal
- duration of the arterial blood pressure increase (Beagle dogs): approximately 15 minutes
- change in arterial blood pressure (Beagle dogs): small increase
- deviations in femoral blood flow, respiratory parameters, and Qtc interval (Beagle dogs): not considered treatment-related
- IC50 (TNF-α production [1]): ~25 nM
- effect on LPS-stimulated production of TNF-α by PBMC (TNF-α production [2]): dose-dependent inhibition
- IC50 (TNF-α production [2]): ~24 nM

SMILES: Nc1cccc2c1CN(C1CCC(=O)NC1=O)C2=O (stereo not drawn) [3-(4-amino-1-oxo-1,3-dihydro-isoindol-2-yl)-piperidine-2,6-dione]
- tolerability (CRPS patients): well-tolerated
- effect on LPS-stimulated production of IL1β by PBMC (IL1β production): dose-dependent inhibition
- effect on LPS-stimulated production of IL6 by PBMC (IL6 production): dose-dependent inhibition
- effect on production of the anti-inflammatory cytokine IL10 (IL10 production): increased production
- cardiovascular and respiratory changes compared to the vehicle control group (Beagle dogs): minimal
- duration of the arterial blood pressure increase (Beagle dogs): approximately 15 minutes
- change in arterial blood pressure (Beagle dogs): small increase
- deviations in femoral blood flow, respiratory parameters, and Qtc interval (Beagle dogs): not considered treatment-related
- IC50 (TNF-α production [1]): ~480 nM
- effect on LPS-stimulated production of TNF-α by PBMC (TNF-α production [2]): dose-dependent inhibition
- IC50 (TNF-α production [2]): ~100 nM
